Assay: Pharmacokinetics of 9-nitro-camptothecin (9NC) in IVAP beagle dog model
Type: in vivo, beagle dogs
Settings: for Mean AUC0-inf of 9-AC, Portal Vein AUC / Mean AUC0-inf of 9-AC, Systemic AUC: in ng·h/mL
Method: Blood samples were taken systemic and from the portal vein through a sampling/delivery vascular port previously implanted, then plasma was separated by centrifugation and kept frozen at −80° C. until analysis.
The samples were analyzed in a Perkin Elmer liquid chromatography-tandem mass spectrometer system with a PE LC-200 Micro pump, a PE200 Autosampler and a PE Sciex API 365 mass spectrometry unit.
Adult male beagle dogs (between the ages of 1 and 5 years and weighed between 9 and 16 kg) were obtained from Summit Ridge Farms, Susquehanna, Pa. The IVAP dogs were prepared by using a protocol similar to the one used for pentostatin experiments described above.
On the morning of the test, each animal is weighed and placed in the sling. An IV catheter is installed in the brachial vein for systemic blood sampling with a multiuse vacutainer needle adapter. This is flushed with heparinized saline (50 units/ml) to maintain potency between sampling. When necessary, a 20 g or 22 g right-angled Huber infusion set would be placed in the PV port and attached to a three-way stopcock for PV blood sampling.
The preparation of the dose depends on the route of study. In case of IV and PV administration, the drug was dissolved in dimethylacetamide (DMA) at 5 mg/ml and 0.5 ml of the DMA concentrate filtered through a […] filter into 4.5 ml of diluent (51% PEG-400 49% 0.001 M H3PO4) prior to administration to the brachial or portal vein. In the case of all other infusions, as well as oral administration, the drug was dissolved in vegetable oil to a concentration of 1 mg/ml and drawn up into dosing syringes. Animals were dosed IV at 0.1 and 0.2 mg/kg and 0.2 mg/kg for all the other routes of administration tested.
In intravascular studies, the dose is administered via a second catheter and the entire volume is delivered within 45 seconds.
In portal vein studies, the dose is also administered via an additional catheter over a 30 min time period.
In the case of oral dosages, the dose is delivered to the back of the mouth with an appropriate size syringe and is followed with 5 ml of tap water to assist swallowing and clearance of the dose from the mouth. Capsules were administered similarly by placing them at the back of the mouth and giving around 5 ml of water to facilitate swallowing.
For all other tests, the dosage is infused into the appropriate intestinal port and flushed with 2-3 ml of sterile saline. The dead space volume of the ports and tubing vary slightly between individuals, but are generally less than 0.5 ml total. […]
Systemic blood samples allow the calculation of AUC0-inf after oral capsule administration only and portal vein AUC for all the routes of administration.

[1] = 9-NC 0.2 mg/kg COLON port, 0.17 hr
[2] = 9-NC 0.2 mg/kg ileum port, 0.17 hr
[3] = 9-NC 0.2 mg/kg jejunal port, 0.17 hr
[4] = portal vein samples, 9-NC via COLON port
[5] = portal vein samples, 9-NC via ILEUM port
[6] = portal vein samples, 9-NC via JEJUNUM port
[7] = systemic samples, 9-NC via COLON port
[8] = systemic samples, 9-NC via ILEUM port
[9] = systemic samples, 9-NC via JEJUNUM port

## CC[C@@]1(O)C(=O)OCc2c1cc1n(c2=O)Cc2cc3c(N)cccc3nc2-1 [9-AC, 9-amino-20(S)-camptothecin]
[1]
  Mean plasma concentration, Portal Vein: 0.50 ± 0.03 ng/mL
  Mean plasma concentration, Systemic: 0.42 ng/mL
[2]
  Mean plasma concentration, Portal Vein: 0.12 ng/mL
  Mean plasma concentration, Systemic: BQL
[3]
  Mean plasma concentration, Portal Vein: 0.10 ng/mL
  Mean plasma concentration, Systemic: BQL
9-NC Intracolon
  Mean AUC0-inf of 9-AC, Portal Vein AUC: 20.81 ± 9.57
  Mean AUC0-inf of 9-AC, Systemic AUC: 36.91 ± 22.62
9-NC Intraileum
  Mean AUC0-inf of 9-AC, Systemic AUC: 21.23 ± 14.94
9-NC Intrajejunal
  Mean AUC0-inf of 9-AC, Portal Vein AUC: 50.26 ± 6.65
  Mean AUC0-inf of 9-AC, Systemic AUC: 24.41 ± 7.77
9-NC Intravenous (0.1 mg/kg)
  Mean AUC0-inf of 9-AC, Portal Vein AUC: 10.76 ± 3.02
  Mean AUC0-inf of 9-AC, Systemic AUC: 12.14 ± 5.68
9-NC Intravenous (0.2 mg/kg)
  Mean AUC0-inf of 9-AC, Portal Vein AUC: 25.02 ± 9.87
  Mean AUC0-inf of 9-AC, Systemic AUC: 21.04 ± 2.36
9-NC Oral - capsule
  Mean AUC0-inf of 9-AC, Portal Vein AUC: 66.15 ± 34.53
  Mean AUC0-inf of 9-AC, Systemic AUC: 44.74 ± 24.72
9-NC Oral - suspension
  Mean AUC0-inf of 9-AC, Portal Vein AUC: 34.43 ± 9.52
  Mean AUC0-inf of 9-AC, Systemic AUC: 20.31 ± 6.97
9-NC Portal vein
  Mean AUC0-inf of 9-AC, Systemic AUC: 4.73 ± 0.73
COLON port, 0.5 hr
  Mean plasma concentration, Portal Vein: 0.77 ± 0.42 ng/mL
  Mean plasma concentration, Systemic: 0.30 ± 0.29 ng/mL
COLON port, 1 hr
  Mean plasma concentration, Portal Vein: 1.20 ± 0.60 ng/mL
  Mean plasma concentration, Systemic: 0.45 ± 0.20 ng/mL
COLON port, 1.5 hr
  Mean plasma concentration, Portal Vein: 1.19 ± 0.97 ng/mL
  Mean plasma concentration, Systemic: 0.76 ± 0.12 ng/mL
COLON port, 2 hr
  Mean plasma concentration, Portal Vein: 1.50 ± 0.66 ng/mL
  Mean plasma concentration, Systemic: 0.68 ± 0.11 ng/mL
COLON port, 3 hr
  Mean plasma concentration, Portal Vein: 0.88 ± 0.19 ng/mL
  Mean plasma concentration, Systemic: 0.83 ± 0.36 ng/mL
COLON port, 4 hr
  Mean plasma concentration, Portal Vein: 2.06 ± 1.69 ng/mL
  Mean plasma concentration, Systemic: 0.90 ± 0.45 ng/mL
COLON port, 6 hr
  Mean plasma concentration, Portal Vein: 1.54 ± 1.06 ng/mL
  Mean plasma concentration, Systemic: 0.74 ± 0.06 ng/mL
COLON port, 8 hr
  Mean plasma concentration, Portal Vein: 0.70 ng/mL
  Mean plasma concentration, Systemic: 1.14 ± 0.38 ng/mL
COLON port, 10 hr
  Mean plasma concentration, Systemic: 0.77 ng/mL
COLON port, 12 hr
  Mean plasma concentration, Portal Vein: 0.76 ng/mL
  Mean plasma concentration, Systemic: 1.11 ± 0.78 ng/mL
COLON port, 24 hr
  Mean plasma concentration, Portal Vein: 0.77 ng/mL
  Mean plasma concentration, Systemic: 0.83 ± 0.00 ng/mL
After IV 0.1 mg/kg 9-NC
  half-life of metabolite: 3.51 ± 1.87 h
After IV 0.2 mg/kg 9-NC
  half-life of metabolite: 6.94 ± 2.87 h
After IV dosing of 9-NC
  time at which the metabolite reached the maximum concentration: around 1 hr
Ileum port, 0.5 hr
  Mean plasma concentration, Portal Vein: 0.26 ng/mL
  Mean plasma concentration, Systemic: 0.11 ng/mL
Ileum port, 1 hr
  Mean plasma concentration, Portal Vein: 0.28 ± 0.06 ng/mL
  Mean plasma concentration, Systemic: 0.20 ng/mL
Ileum port, 1.5 hr
  Mean plasma concentration, Portal Vein: 0.75 ± 0.52 ng/mL
  Mean plasma concentration, Systemic: 0.23 ± 0.10 ng/mL
Ileum port, 2 hr
  Mean plasma concentration, Portal Vein: 0.99 ± 0.60 ng/mL
  Mean plasma concentration, Systemic: 0.52 ± 0.42 ng/mL
Ileum port, 3 hr
  Mean plasma concentration, Portal Vein: 1.80 ± 1.97 ng/mL
  Mean plasma concentration, Systemic: 1.40 ng/mL
Ileum port, 4 hr
  Mean plasma concentration, Portal Vein: 3.06 ± 3.74 ng/mL
  Mean plasma concentration, Systemic: 0.86 ± 0.67 ng/mL
Ileum port, 6 hr
  Mean plasma concentration, Portal Vein: 4.09 ± 4.44 ng/mL
  Mean plasma concentration, Systemic: 1.17 ± 0.75 ng/mL
Ileum port, 8 hr
  Mean plasma concentration, Systemic: 2.04 ± 0.20 ng/mL
Ileum port, 12 hr
  Mean plasma concentration, Systemic: 0.85 ± 0.95 ng/mL
Ileum port, 24 hr
  Mean plasma concentration, Systemic: 0.47 ng/mL
Jejunal port, 0.5 hr
  Mean plasma concentration, Portal Vein: 0.12 ng/mL
  Mean plasma concentration, Systemic: BQL
Jejunal port, 1 hr
  Mean plasma concentration, Portal Vein: 0.16 ± 0.10 ng/mL
  Mean plasma concentration, Systemic: 0.38 ng/mL
Jejunal port, 2 hr
  Mean plasma concentration, Portal Vein: 0.39 ± 0.04 ng/mL
  Mean plasma concentration, Systemic: 0.32 ± 0.11 ng/mL
Jejunal port, 3 hr
  Mean plasma concentration, Portal Vein: 0.97 ± 0.76 ng/mL
  Mean plasma concentration, Systemic: 0.47 ± 0.38 ng/mL
Jejunal port, 4 hr
  Mean plasma concentration, Portal Vein: 2.38 ± 2.20 ng/mL
  Mean plasma concentration, Systemic: 0.89 ± 0.67 ng/mL
Jejunal port, 6 hr
  Mean plasma concentration, Portal Vein: 1.65 ± 1.13 ng/mL
  Mean plasma concentration, Systemic: 1.59 ± 1.71 ng/mL
Jejunal port, 8 hr
  Mean plasma concentration, Portal Vein: 2.70 ± 0.59 ng/mL
  Mean plasma concentration, Systemic: 1.71 ± 1.54 ng/mL
Jejunal port, 10 hr
  Mean plasma concentration, Systemic: 1.81 ± 1.09 ng/mL
Jejunal port, 12 hr
  Mean plasma concentration, Portal Vein: 2.62 ± 0.29 ng/mL
  Mean plasma concentration, Systemic: 1.03 ± 0.05 ng/mL
Jejunal port, 24 hr
  Mean plasma concentration, Portal Vein: 0.66 ng/mL
  Mean plasma concentration, Systemic: 0.45 ± 0.29 ng/mL
Portal vein samples, 0.2 mg/kg 9-NC via COLON port
  AUC0-INF: 20.81 ± 9.57 ng·h/mL
Portal vein samples, 0.2 mg/kg 9-NC via JEJUNUM port
  AUC0-INF: 50.26 ± 6.65 ng·h/mL
[4]
  AUCLast: 12.69 ± 5.10 ng·h/mL
  CMAX: 2.28 ± 1.59 ng/mL
  MRT: 7.54 ± 0.61 h
  T1/2: 3.98 ± 0.25 h
  TMAX: 4.00 ± 2.00 h
[5]
  AUCLast: 11.83 ± 12.85 ng·h/mL
  CMAX: 4.10 ± 2.28 ng/mL
  TMAX: 6.00 ± 0.00 h
[6]
  AUCLast: 28.70 ± 12.16 ng·h/mL
  CMAX: 3.46 ± 1.22 ng/mL
  MRT: 13.97 ± 2.62 h
  T1/2: 6.54 ± 1.30 h
  TMAX: 9.33 ± 4.62 h
Systemic samples, 0.2 mg/kg 9-NC via COLON port
  AUC0-INF: 36.91 ± 22.62 ng·h/mL
Systemic samples, 0.2 mg/kg 9-NC via ILEUM port
  AUC0-INF: 21.23 ± 14.94 ng·h/mL
Systemic samples, 0.2 mg/kg 9-NC via JEJUNUM port
  AUC0-INF: 24.41 ± 7.77 ng·h/mL
[7]
  AUCLast: 19.34 ± 11.92 ng·h/mL
  CMAX: 1.29 ± 0.63 ng/mL
  MRT: 57.62 ± 42.79 h
  T1/2: 15.16 ± 14.34 h
  TMAX: 9.33 ± 2.31 h
[8]
  AUCLast: 18.69 ± 11.73 ng·h/mL
  CMAX: 2.04 ± 0.20 ng/mL
  MRT: 10.64 ± 5.14 h
  T1/2: 4.09 ± 4.24 h
  TMAX: 8.00 ± 0.00 h
[9]
  AUCLast: 18.86 ± 5.73 ng·h/mL
  CMAX: 1.99 ± 1.39 ng/mL
  MRT: 15.64 ± 8.69 h
  T1/2: 7.20 ± 5.98 h
  TMAX: 8.67 ± 2.31 h

Reference: patent US20040162263A1, “Pharmaceutical formulations targeting specific regions of the gastrointesinal tract” (priority 2002, published 2004)
